US9907637B2, “Modular bioresorbable or biomedical, biologically active supramolecular materials” (SupraPolix B.V., priority 2005, dated 2018)

How the values were obtained:
[1] = Extraction of peptide out of polymer films with water, LC-MS; type: physicochemical; conditions: for peptide dissolved: 80 minutes at 37° C. in a total volume of 5 mL water, 4 mole % peptide; for extraction: water 37° C., 4 mole % peptide in film of polymer of example 14
Method: The extraction of the peptide of example 18 and the peptide GRGDS without a UPy-unit out of films of example 29a was investigated with LC-MS measurements. The amount of peptide that was mixed in the polymeric materials is in both cases 4 mole %. Calibration was performed by quantification of one fragment of the parent ion (MS^2) of the peptides using different concentrations of the peptides. The surface area of the corresponding peak (in the total ion count) was calculated with the ICIS algorithm. The extraction experiments were performed as follows: the film was incubated at 37° C. for 5 minutes in 1 mL water, then the water was removed and the concentration of peptide was measured with the described LC-MS procedure (time-point: 5 minutes); another 1 mL water was added to the film which was subsequently incubated again for 5 minutes at 37° C. followed by removal of the water which was analysed with the LC-MS method (time-point: 10 minutes); another 1 mL water was added to the film and the sample was incubated for 10 minutes at 37° C. followed by removal of the water which was analysed with the LC-MS method (time-point: 20 minutes); incubation at 37° C. in another 1 mL water for 20 minutes, followed by removal of the water which was analysed with the LC-MS method (time-point: 40 minutes); and incubation at 37° C. in another 1 mL water for 40 minutes, followed by removal of the water which was analysed with the LC-MS method (time-point: 80 minutes).

[2] = as above; type: physicochemical; conditions: 2 hours at 37° C. in 1 mL water, 4 mole % peptide

peptide dissolved [1] [%] | extraction ([1]; time 5 min) [%] | extraction ([1]; time 10 min) [%] | extraction ([1]; time 20 min) [%] | dissolution of peptide from film ([1]; within 5 minutes, water at 37° C.) | peptide dissolved [2] [%] | Substance
105 | 91 | 97 | 100 | almost all of the peptide is dissolved | 101 | GRGDS
76 | 39 | 60 | 76 |  | 64 | UPy-GRGDS [Example 18]
